The record followed here is US7291617B2, “Arylamidine derivative or salt thereof” (Toyama Chemical Co., Ltd., priority 2003, dated 2007).

Molecules are shown by their SMILES. Counter-ions that a name gives are not always drawn.

The first test relates to Candida albicans TIMM 1623. Description: Therapeutic effect on mouse systemic Candida albicans infection, single subcutaneous dose, T/C survival. It counts as in vivo, ICR male mice. The following applies: 0.1 mg/kg, administered once into the dorsal subcutis 2 hours after infection; observed until the 14th day. Here is the method: Candida albicans TIMM 1623 was cultured at 30° C. overnight on a Sabouraud agar plate medium (Eiken Chemical Co., Ltd.), and the obtained culture was suspened in a sterilized physiological saline solution. Thus, a fungal solution for infection, having a concentration of 1×10^7 cells/ml, was prepared. This fungal solution was inoculated in a concentration of 0.2 ml (2×10^6 CFU/mouse) into the tail vein of each of five ICR male mice (4-week-old, body weight of 20±1 g). 2 hours later, 0.2 ml of a solution, which had been prepared by dissolving a test compound into a sterilized physiological saline solution and setting the concentration at 0.01 mg/ml, was administered once into the dorsal subcutis of each mouse. To mice of a control group, an equal amount of a sterilized physiological saline solution was administered.
Viability of the mice was observed until the 14th day after the infection, and the cumulative survival rate (T/C) of the treatment group to the control group was calculated, and the obtained value was used as an index of the life-prolonging effect.
Take `N=C(N)c1ccc(OCCCNCCNCCCOc2ccc(C(=N)N)cc2)cc1` [Example 24, 4-[3-({2-[(3-{4-[amino(imino)methyl]phenoxy}propyl)amino]ethyl}amino)propoxy]benzamidine hydrochloride]: the “cumulative survival rate (T/C) of the treatment group to the control group” value was 180.

For another test, the system named is Candida albicans TIMM 1623. Briefly: Therapeutic effect on mouse systemic Candida albicans infection, 7 subcutaneous doses, survival to day 28. It counts as in vivo, ICR male mice. The following applies: 0.2 ml of 0.01 mg/ml solution subcutaneously once a day, 7 times in total; five mice per group; control group all died. Here is the method: Candida albicans TIMM 1623 was cultured at 30° C. overnight on a Sabouraud agar plate medium (Eiken Chemical Co., Ltd.), and the cultured fumgus was suspended in a sterilized physiological saline solution. Thus, a fungal solution for infection, having a concentration of approximately 10^7 cells/ml, was prepared. 0.2 ml of this fungal solution was inoculated into the tail vein of each of five ICR male mice (4-week-old, body weight of 20±1 g). 2 hours after the infection, 0.2 ml of a solution, which had been prepared by dissolving a test compound into a sterilized physiological saline solution and adjusting the concentration at 0.01 mg/ml, was administered once into the dorsal subcutis of each mouse. From the following day, the same solution was administered thereto once a day for 6 days. Thus, the above solution was administered into the dorsal subcutis of the mice 7 times in total. To mice of a control group, an equal amount of a sterilized physiological saline solution was administered. Viability of the mice was observed until the 28th day after the infection.
Regarding `N=C(N)c1ccc(OCCCN2CCC(CCOc3ccc(C(=N)N)cc3)CC2)cc1` [Example 56, 4-{2-[1-(3-{4-[amino(imino)methyl]phenoxy}propyl)-4-piperidinyl]ethoxy}benzamidine Hydrochloride], the “survival ratio on the 28th day after the infection” value is 4/5. Same read-out and setting: the figure for `N=C(N)c1ccc(OCCCNCCNCCCOc2ccc(C(=N)N)cc2)cc1` [Example 24, 4-[3-({2-[(3-{4-[amino(imino)methyl]phenoxy}propyl)amino]ethyl}amino)propoxy]benzamidine hydrochloride] is 3/5; for `N=C(N)c1ccc(OCCCN2CCN(CCCOc3ccc(C(=N)N)cc3)CC2)cc1` [Example 40-2, 4-{3-[4-(3-{4-[amino(imino)methyl]phenoxy}propyl)-1-piperazinyl]propoxy}benzamidine hydrochloride] it is 4/5.

The test system of the next test is Candida albicans TIMM 1623. Briefly: Antifungal action, microbroth dilution growth inhibition. In kind it is cell-based. Particulars: Candida albicans, TIMM1623, 36 h, read-out: IC50 (50% growth inhibitory concentration). Here is the method:
50% growth inhibitory concentration (IC50) was measured according to the microbroth dilution method, using, as a reference, the antifungal agent sensitivity test method proposed by the subcommittee for the antifungal agent sensitivity test, the Japanese Society for Medical Mycology (Japanese Journal of Medical Mycology, vol. 36, No. 1, pp. 62 to 64, 1995). Synthetic amino acid medium, fungal (SAAMF, manufactured by Nippon Bio-Supp. Center) was used as a medium for measurement of sensitivity. Candida albicans TIMM 1623 was cultured at 30° C. overnight on a Sabouraud agar plate medium (Eiken Chemical Co., Ltd.), and the obtained culture was suspended in a sterilized physiological saline solution. Thereafter, the suspension was diluted with a measurement medium such that the number of cells became 1×10^4 cells/ml, thereby producing an inoculum organism solution. 175 μl of a medium, 5 μl of a test agent (an agent diluted solvent in a growth control well), and 20 μl of the inoculum organism solution were added to a 96-well microplate (flat bottom, manufactured by Sumitomo Bakelite Co., Ltd.), and the mixture was stirred with a mixer. Thereafter, using a well Reader SME3400 (Scinics Co., Ltd.), an initial turbidity at a wavelength of 630 nm was measured. The above mixture was cultured at 35° C., and 36 hours later, a final turbidity was measure in the same manner. For an agent-diluted line, values were obtained by subtracting the initial turbidities from the final turbidities. For a growth control line also, values were obtained by subtracting the initial turbidities from the final turbidities. IC50 was defined as the lowest agent concentration among the test agent concentrations having a turbidity equal to or lower than the 50% value (IC50 calculated value) of a value obtained by subtracting the initial turbidity of a growth control from the final turbidity thereof.
For the compound `N=C(N)c1ccc(OCCCN)cc1` [Example 9-2, 4-(3-aminopropoxy)benzamidine Hydrochloride], the IC50 is 0.5 µg/mL. For `N=C(N)c1ccc(OCCNCCNCCOc2ccc(C(=N)N)cc2)cc1` [Example 25, 4-[2-({2-[(2-{4-[amino(imino)methyl]phenoxy}ethyl)amino]ethyl}amino)ethoxy]benzamidine Hydrochloride], the IC50 was found to be 0.0156 µg/mL. Still for that read-out and setting: to `N=C(N)c1ccc(OCCCN2CCN(CCCOc3ccc(C(=N)N)cc3F)CC2)c(F)c1` [Example 43, 4-{3-[4-(3-{4-[amino(imino)methyl]-2-fluorophenoxy}propyl)-1-piperazinyl]propoxy}-3-fluorobenzamidine Hydrochloride] belongs 0.0313 µg/mL.

For `N=C(N)c1ccc(OCCCNCCN)cc1` [Example 10, 4-{3-[(2-aminoethyl)amino]propoxy}benzamidine hydrochloride], the IC50 came to 1 µg/mL. Take `N=C(N)c1ccc(OCCCNC2CCN(CCCOc3ccc(C(=N)N)cc3)C2)cc1` (stereo not shown) [Example 57, 4-(3-{3-[(3-{4-[amino (imino)methyl]phenoxy}propyl)amino]-1-pyrrolidinyl}propoxy)benzamidine Hydrochloride]: the IC50 came to 0.0313 µg/mL. Same read-out and setting: the figure for `N=C(N)c1ccc(OCCCNCCNCCOc2ccc(C(=N)N)cc2)cc1` [Example 27, 4-[3-({2-[(2-{4-[amino(imino)methyl]phenoxy}ethyl)amino]ethyl}amino)propoxy]benzamidine Hydrochloride] is 0.0313 µg/mL; for `N=C(N)c1ccc(OCCCCNCCNCCCCOc2ccc(C(=N)N)cc2)cc1` [Example 26, 4-[4-({2-[(4-{4-[amino(imino)methyl]phenoxy}butyl)amino]ethyl}amino)butoxy]benzamidine Hydrochloride] it is 0.0625 µg/mL. The same measure, in the same setting: the figure for `N=C(N)c1ccc(OCCCNC2CCN(CCCOc3ccc(C(=N)N)cc3)CC2)cc1` [Example 58, 4-(3-{[1-(3-{4-[amino(imino)methyl]phenoxy}propyl)-4-piperidinyl]amino}propoxy)benzamidine Hydrochloride] is 0.0313 µg/mL. The same measure, in the same setting: to `N=C(N)c1ccc(OCCCCCN)cc1` [Example 7, 4-[(5-aminopentyl)oxy]benzamidine Hydrochloride] belongs 0.5 µg/mL; to `N=C(N)c1ccc(OCCCN2CCC(CCOc3ccc(C(=N)N)cc3)CC2)cc1` [Example 56, 4-{2-[1-(3-{4-[amino(imino)methyl]phenoxy}propyl)-4-piperidinyl]ethoxy}benzamidine Hydrochloride], 0.0039 µg/mL; to `N=C(N)c1ccc(OCCCN2CCCN(CCCOc3ccc(C(=N)N)cc3)CC2)cc1` [Example 55, 4-{3-[4-(3-{4-[amino(imino)methyl]phenoxy}propyl)-1,4-diazepan-1-yl]propoxy}benzamidine Hydrochloride], 0.0156 µg/mL. Regarding `N=C(N)c1ccc(OCCCNCCNCCCOc2ccc(C(=N)N)cc2)cc1` [Example 24, 4-[3-({2-[(3-{4-[amino(imino)methyl]phenoxy}propyl)amino]ethyl}amino)propoxy]benzamidine hydrochloride], the IC50 amounted to 0.0078 µg/mL.

As for `N=C(N)c1ccc(OCCCNCCCOc2ccc(C(=N)N)cc2)cc1` [Example 32, 4-{3-[(3-{4-[amino(imino)methyl]phenoxy}propyl)amino]propoxy}benzamidine Hydrochloride], the IC50 amounted to 0.0313 µg/mL. As to `N=C(N)c1ccc(OCCCCN)cc1` [Example 5, 4-(4-aminobutoxy)benzamidine hydrochloride], the IC50 was 0.25 µg/mL. Same read-out and setting: to `N=C(N)c1ccc(OCCCN2CCN(CCCOc3ccc(C(=N)N)c(F)c3)CC2)cc1F` [Example 42, 4-{3-[4-(3-{4-[amino(imino)methyl]-3-fluorophenoxy}propyl)-1-piperazinyl]propoxy}-2-fluorobenzamidine Hydrochloride] belongs 0.0156 µg/mL; to `CNCCCOc1ccc(C(=N)N)cc1` [Example 2, 4-[3-(methylamino)propoxy]benzamidine Hydrochloride], 2 µg/mL. On the same count and under the same terms, to `N=C(N)c1ccc(OCCCNCCNCCCOc2cccc(C(=N)N)c2)cc1` [Example 74, 3-[3-({2-[(3-{4-[amino(imino)methyl]phenoxy}propyl)amino]ethyl}amino)propoxy]benzamidine Hydrochloride] belongs 0.125 µg/mL; to `N=C(N)c1ccc(OCCCN2CCN(CCCOc3ccc(C(=N)N)cc3)CC2)cc1` [Example 40-2, 4-{3-[4-(3-{4-[amino(imino)methyl]phenoxy}propyl)-1-piperazinyl]propoxy}benzamidine hydrochloride], 0.0039 µg/mL.

As for `N=C(N)c1ccc(OCCCNCCCCCC(=O)O)cc1` [Example 3-2, 6-[(3-{4-[amino(imino)methyl]phenoxy}propyl)amino]hexanoic Acid Hydrochloride], the IC50 amounted to 0.5 µg/mL.

The test is the same for the next values; noted with them: TIMM1623; Candida albicans TIMM 1623, SAAMF medium, 35° C., 36 hours, turbidity at 630 nm; read-out: IC50 (50% growth inhibitory concentration).
Turning to `N=C(N)c1ccc(OCCCN2CCN(CCCOc3ccc(C(=N)N)cc3)C(=O)C2=O)cc1` [Example 19, 4-{3-[4-(3-{4-[amino(imino)methyl]phenoxy}propyl)-2,3-dioxo-1-piperazinyl]propoxy}benzamidine acetate], the IC50 turned out to be 0.125 µg/mL. Consider `N=C(N)c1ccc(OCCCCN2CCN(CCCCOc3ccc(C(=N)N)cc3)C(=O)C2=O)cc1` [Example 21, 4-{4-[4-(4-{4-[amino(imino)methyl]phenoxy}butyl)-2,3-dioxo-1-piperazinyl]butoxy}benzamidine Acetate], for which the IC50 worked out at 0.25 µg/mL. Still for that read-out and setting: to `N=C(N)c1ccc(OCCCN2CCN(CCOc3ccc(C(=N)N)cc3)C(=O)C2=O)cc1` [Example 22, 4-{3-[4-(2-{4-[amino(imino)methyl]phenoxy}ethyl)-2,3-dioxo-1-piperazinyl]propoxy}benzamidine Acetate] belongs 2 µg/mL; to `N=C(N)c1ccc(OCCN2CCN(CCOc3ccc(C(=N)N)cc3)C(=O)C2=O)cc1` [Example 20, 4-{2-[4-(2-{4-[amino(imino)methyl]phenoxy}ethyl)-2,3-dioxo-1-piperazinyl]ethoxy}benzamidine Acetate], 0.125 µg/mL; to `N=C(N)c1ccc(OC/C=C/CN2CCN(CCCOc3ccc(C(=N)N)cc3)C(=O)C2=O)cc1` [Example 23, 4-({(E)-4-[4-(3-{4-[amino(imino)methyl]phenoxy}propyl)-2,3-dioxo-1-piperazinyl]-2-butenyl}oxy)benzamidine Acetate], 2 µg/mL.
